Consider 20 compounds from patent US10479780B2, “Aminopyrazole derivatives” (Chugai Seiyaku Kabushiki Kaisha, priority 2015, dated 2019).

Holding throughout (assay type): biochemical
Assay [1] deals with T1, human Lck enzyme (Homo sapiens, UniProt P06239).
T1 construct: purchased Carna Biosciences, Inc. 08-170
The experiment in a line: Lck enzyme inhibitory activity (time-resolved fluorometry, biotinylated peptide phosphorylation). To be noted: read-out: LCK_IC50. The method, boiled down: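 Readout pairs a europium cryptate-labelled anti-phosphotyrosine antibody with XL665-streptavidin, measured by time-resolved fluorescence. IC50 derived from percent inhibition against untreated controls.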

The target of assay [2] is T2, human Src enzyme (Homo sapiens, UniProt P12931).
T2 construct: purchased Carna Biosciences, Inc. 08-173
T2 sequence (P12931 whole entry): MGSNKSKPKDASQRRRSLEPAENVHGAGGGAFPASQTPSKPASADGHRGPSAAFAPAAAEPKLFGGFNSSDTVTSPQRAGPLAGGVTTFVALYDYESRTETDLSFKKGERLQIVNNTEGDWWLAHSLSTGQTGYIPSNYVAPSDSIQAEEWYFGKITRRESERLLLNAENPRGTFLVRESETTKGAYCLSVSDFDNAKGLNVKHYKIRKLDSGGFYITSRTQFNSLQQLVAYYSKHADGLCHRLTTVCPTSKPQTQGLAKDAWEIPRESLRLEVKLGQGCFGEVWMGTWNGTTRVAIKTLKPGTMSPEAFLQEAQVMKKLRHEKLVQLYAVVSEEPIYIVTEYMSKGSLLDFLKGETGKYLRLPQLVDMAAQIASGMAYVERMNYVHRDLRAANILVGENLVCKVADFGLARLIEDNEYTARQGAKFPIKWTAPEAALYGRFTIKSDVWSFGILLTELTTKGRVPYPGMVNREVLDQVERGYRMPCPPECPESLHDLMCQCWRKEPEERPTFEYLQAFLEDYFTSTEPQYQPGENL
Kind of assay: Src enzyme inhibitory activity (time-resolved fluorometry, biotinylated peptide phosphorylation). To be noted: read-out: SRC_IC50. The method, boiled down: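 Compounds were tested for blocking tyrosine phosphorylation of a biotinylated peptide substrate by recombinant human Src. Phosphorylated product was quantified by time-resolved fluorometry using europium cryptate and XL665 conjugates, and IC50 was calculated against the compound-free control.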

Assay [3] concerns the target T3, human Yes1 enzyme (Homo sapiens, UniProt P07947).
T3 construct: made in house
Kind of assay: Yes1 enzyme inhibitory activity (time-resolved fluorometry, biotinylated peptide phosphorylation). The conditions noted are these: read-out: YES_IC50. The gist of the method: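 Inhibition was expressed against a compound-free control to give IC50, using TR-FRET read-out (Eu-cryptate anti-pTyr antibody, streptavidin-XL665).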

The mark [4] stands for this setting: biotinylated peptide phosphorylation.

Read-outs that look alike come from different tables or passages of the source.

T1 sequence (P06239 whole entry): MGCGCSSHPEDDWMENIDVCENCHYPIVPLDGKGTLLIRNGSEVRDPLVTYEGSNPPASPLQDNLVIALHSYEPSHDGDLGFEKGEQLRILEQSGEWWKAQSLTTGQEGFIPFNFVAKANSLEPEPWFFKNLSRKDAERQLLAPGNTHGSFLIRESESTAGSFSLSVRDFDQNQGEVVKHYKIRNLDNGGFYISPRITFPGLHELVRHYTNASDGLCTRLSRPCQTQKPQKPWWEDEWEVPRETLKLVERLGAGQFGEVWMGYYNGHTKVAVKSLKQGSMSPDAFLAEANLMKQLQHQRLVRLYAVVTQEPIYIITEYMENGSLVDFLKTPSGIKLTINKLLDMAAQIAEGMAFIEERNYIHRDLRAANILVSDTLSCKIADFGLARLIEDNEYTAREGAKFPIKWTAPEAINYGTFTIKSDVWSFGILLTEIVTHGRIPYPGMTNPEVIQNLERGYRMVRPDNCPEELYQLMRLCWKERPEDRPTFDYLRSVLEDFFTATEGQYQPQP
T3 sequence (P07947 whole entry): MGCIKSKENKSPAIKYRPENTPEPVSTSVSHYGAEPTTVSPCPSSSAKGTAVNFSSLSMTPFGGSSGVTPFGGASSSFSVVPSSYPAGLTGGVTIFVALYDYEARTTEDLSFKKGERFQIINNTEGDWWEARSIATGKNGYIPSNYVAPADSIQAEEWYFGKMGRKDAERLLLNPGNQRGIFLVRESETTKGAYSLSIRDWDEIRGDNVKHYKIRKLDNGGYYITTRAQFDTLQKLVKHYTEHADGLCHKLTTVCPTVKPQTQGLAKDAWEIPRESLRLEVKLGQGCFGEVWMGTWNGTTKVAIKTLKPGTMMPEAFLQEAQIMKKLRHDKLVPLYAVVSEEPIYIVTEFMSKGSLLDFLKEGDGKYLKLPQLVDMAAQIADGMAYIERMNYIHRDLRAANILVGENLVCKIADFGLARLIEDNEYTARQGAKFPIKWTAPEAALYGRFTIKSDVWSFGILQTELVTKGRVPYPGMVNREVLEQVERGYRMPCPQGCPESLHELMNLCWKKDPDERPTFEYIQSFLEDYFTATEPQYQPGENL

Take `Cc1cc(Oc2c(F)cccc2F)ncc1-n1ncc(C(=O)c2cc3cc(OCC(F)F)c(N4CCOC4=O)cc3[nH]2)c1N` [Example 4-21-005, 3-[2-[5-amino-1-[6-(2,6-difluorophenoxy)-4-methylpyridin-3-yl]pyrazole-4-carbonyl]-5-(2,2-difluoroethoxy)-1H-indol-6-yl]-1,3-oxazolidin-2-one]: the IC50 is 4.3 nM in assay [1] (setting [4]), 11 nM in assay [2] (setting [4]) and 1.2 nM in assay [3] (setting [4]).
For `Cc1cc(Oc2ccccc2F)ncc1-n1ncc(C(=O)c2cc3cc(OC(F)F)c(N4C(=O)NC(C)(C)C4=O)cc3[nH]2)c1N` [Example 5-1-402, 3-[2-[5-amino-1-[6-(2-fluorophenoxy)-4-methylpyridin-3-yl]pyrazole-4-carbonyl]-5-(difluoromethoxy)-1H-indol-6-yl]-5,5-dimethylimidazolidine-2,4-dione] the same measures were 8.2 nM, 63 nM and 1.8 nM.
On to `Cc1cc(Oc2ccccc2F)ccc1-n1ncc(C(=O)c2cc3cc(OCC(F)F)c(N4CC5(CCCC5)NS4(=O)=O)cc3[nH]2)c1N` [Example 5-1-323, [5-amino-1-[4-(2-fluorophenoxy)-2-methylphenyl]pyrazol-4-yl]-[5-(2,2-difluoroethoxy)-6-(2,2-dioxo-2λ6-thia-1,3-diazaspiro[4.4]nonan-3-yl)-1H-indol-2-yl] methanone], for which the IC50 in assay [1] was determined as 40 nM; in assay [2] it was 230 nM; in assay [3], 9.1 nM.
Take `Cc1cc(Oc2c(F)cccc2F)ncc1-n1ncc(C(=O)c2cc3cc(OC4CCN(C(C)C)CC4)c(-c4cccs4)cc3[nH]2)c1N` [Example 5-1-239, [5-amino-1-[6-(2,6-difluorophenoxy)-4-methylpyridin-3-yl]pyrazol-4-yl]-[5-(1-propan-2-ylpiperidin-4-yl)oxy-6-thiophen-2-yl-1H-indol-2-yl]methanone]: the results for the IC50 in assay [1], in assay [2] and in assay [3] were 16 nM, 40 nM and 5 nM, respectively.
In the case of `Cc1cc(-n2ncc(C(=O)c3cc4cc(OC5CCN(C6CS(=O)(=O)C6)CC5)c(-c5cncnc5)cc4[nH]3)c2N)ccc1Oc1ccccc1F` [Example 5-1-283, [5-amino-1-[4-(2-fluorophenoxy)-3-methylphenyl]pyrazol-4-yl]-[5-[1-(1,1-dioxothietan-3-yl)piperidin-4-yl]oxy-6-pyrimidin-5-yl-1H-indol-2-yl]methanone], the values for the IC50 in assay [1], in assay [2] and in assay [3] were 32 nM, 270 nM and 2 nM, respectively.
Consider `Cc1cc(Oc2c(F)cccc2F)ncc1-n1ncc(C(=O)c2cc3cc(OC(F)F)c(C4CCN(C(=O)CN)CC4)cc3[nH]2)c1N` [Example 4-18-003, 2-amino-1-[4-[2-[5-amino-1-[6-(2,6-difluorophenoxy)-4-methylpyridin-3-yl]pyrazole-4-carbonyl]-5-(difluoromethoxy)-1H-indol-6-yl]piperidin-1-yl]ethanone], for which the IC50 stood at 11 nM in assay [1] (setting [4]), 23 nM in assay [2] (setting [4]) and 4.8 nM in assay [3] (setting [4]).
On the same counts, the results for `Cc1cc(Oc2cccc(F)c2)ncc1-n1ncc(C(=O)c2cc3cc(F)c(NS(=O)(=O)C4CC4)cc3[nH]2)c1N` [Example 4-2-048, N-[2-[5-amino-1-[6-(3-fluorophenoxy)-4-methylpyridin-3-yl]pyrazole-4-carbonyl]-5-fluoro-1H-indol-6-yl]cyclopropanesulfonamide] are 79 nM, 290 nM and 12 nM.
On the same counts, the results for `Cc1cc(Oc2cccc(Cl)c2)cc(F)c1-n1ncc(C(=O)c2cc3cc(Cl)c(NS(C)(=O)=O)cc3[nH]2)c1N` [Example 4-2-083, N-[2-[5-amino-1-[4-(3-chlorophenoxy)-2-fluoro-6-methylphenyl]pyrazole-4-carbonyl]-5-chloro-1H-indol-6-yl]methanesulfonamide] are 250 nM, 520 nM and 27 nM.
As to `Cc1cc2cc(C(=O)c3cnn(-c4ccc(Oc5ccccc5F)cc4C)c3N)[nH]c2cc1N1C(=O)NC2(CC2)C1=O` [Example 5-1-372, 6-[2-[5-amino-1-[4-(2-fluorophenoxy)-2-methylphenyl]pyrazole-4-carbonyl]-5-methyl-1H-indol-6-yl]-4,6-diazaspiro[2.4]heptane-5,7-dione], the IC50 in assay [1] amounted to 6.1 nM; in assay [2], 16 nM; in assay [3], 1.3 nM.
Regarding `Cc1cc(Oc2c(F)cccc2F)ncc1-n1ncc(C(=O)c2cc3cc(OC(F)F)c(NS(=O)(=O)C4CCOCC4)cc3[nH]2)c1N` [Example 5-1-380, N-[2-[5-amino-1-[6-(2,6-difluorophenoxy)-4-methylpyridin-3-yl]pyrazole-4-carbonyl]-5-(difluoromethoxy)-1H-indol-6-yl]oxane-4-sulfonamide], the IC50 in assay [1] is 110 nM; in assay [2], 95 nM; in assay [3], 6.3 nM.
For `Cc1cc(Oc2ccccc2F)ccc1-n1ncc(C(=O)c2cc3cc(OCC(F)F)c(N4C(=O)[C@@H]5C[C@@H](O)CN5C4=O)cc3[nH]2)c1N` [Example 5-1-250] the same measures were 2.8 nM, 7.5 nM and 0.76 nM.
`Cc1cc(Oc2cccc(Cl)c2)ccc1-n1ncc(C(=O)c2cc3cc(C4CCN(C(C)C)CC4)c(F)cc3[nH]2)c1N` [Example 4-2-003, [5-amino-1-[4-(3-chlorophenoxy)-2-methylphenyl]pyrazol-4-yl]-[6-fluoro-5-(1-propan-2-ylpiperidin-4-yl)-1H-indol-2-yl]methanone]: the figures for the IC50 in assay [1] (setting [4]), in assay [2] (setting [4]) and in assay [3] (setting [4]) were 2.1 nM, 6.4 nM and 1.4 nM, respectively.
With `Cc1cc(Oc2ccccc2F)ccc1-n1ncc(C(=O)c2cc3cc(F)c(N4C(=O)NC(C)(C)C4=O)cc3[nH]2)c1N` [Example 5-1-127, 3-[2-[5-amino-1-[4-(2-fluorophenoxy)-2-methylphenyl]pyrazole-4-carbonyl]-5-fluoro-1H-indol-6-yl]-5,5-dimethylimidazolidine-2,4-dione], the IC50 in assay [1] is 4 nM; in assay [2], 39 nM; in assay [3], 0.67 nM.
On the same counts, the results for `Cc1cc(Oc2c(F)cccc2F)ncc1-n1ncc(C(=O)c2cc3cc(F)c(N4CCC(N5CCOCC5)CC4)cc3[nH]2)c1N` [Example 5-1-112, [5-amino-1-[6-(2,6-difluorophenoxy)-4-methylpyridin-3-yl]pyrazol-4-yl]-[5-fluoro-6-(4-morpholin-4-ylpiperidin-1-yl)-1H-indol-2-yl] methanone] are 1.7 nM, 26 nM and 0.81 nM.
In the case of `Cc1cc2cc(C(=O)c3cnn(-c4cnc(Oc5c(F)cccc5Cl)cc4C)c3N)[nH]c2cc1NS(C)(=O)=O` [Example 4-2-064, N-[2-[5-amino-1-[6-(2-chloro-6-fluorophenoxy)-4-methylpyridin-3-yl]pyrazole-4-carbonyl]-5-methyl-1H-indol-6-yl]methanesulfonamide], the IC50 in assay [1] (setting [4]) was determined as 14 nM; in assay [2] (setting [4]), 63 nM; in assay [3] (setting [4]), 2.4 nM.
With `Nc1c(C(=O)c2cc3cc(F)c(NS(=O)(=O)CCCF)cc3[nH]2)cnn1-c1ccc(Oc2ncccc2F)cc1F` [Example 5-1-035, N-[2-[5-amino-1-[2-fluoro-4-(3-fluoropyridin-2-yl)oxyphenyl]pyrazole-4-carbonyl]-5-fluoro-1H-indol-6-yl]-3-fluoropropane-1-sulfonamide], the IC50 in assay [1] was 35 nM; in assay [2], 85 nM; in assay [3] it was 0.68 nM.
On to `Cc1cc(Oc2ccccc2F)ncc1-n1ncc(C(=O)c2cc3cc(F)c(NS(=O)(=O)c4cccc(F)n4)cc3[nH]2)c1N` [Example 5-1-519, N-[2-[5-amino-1-[6-(2-fluorophenoxy)-4-methylpyridin-3-yl]pyrazole-4-carbonyl]-5-fluoro-1H-indol-6-yl]-6-fluoropyridine-2-sulfonamide], for which the figures for the IC50 in assay [1] (setting [4]), in assay [2] (setting [4]) and in assay [3] (setting [4]) were 120 nM, 710 nM and 4.6 nM, respectively.
As for `Cc1cc(Oc2cccc(F)c2F)ccc1-n1ncc(C(=O)c2cc3cc(F)c(NS(N)(=O)=O)cc3[nH]2)c1N` [Example 4-20-002, 2-[5-amino-1-[4-(2,3-difluorophenoxy)-2-methylphenyl]pyrazole-4-carbonyl]-5-fluoro-6-(sulfamoylamino)-1H-indole], the IC50 in assay [1] (setting [4]) amounted to 8.3 nM; in assay [2] (setting [4]), 50 nM; in assay [3] (setting [4]), 1 nM.
For `Cc1cc2cc(C(=O)c3cnn(-c4ccc(Oc5cccc(F)c5F)cc4C)c3N)[nH]c2cc1N1CCCS1(=O)=O` [Example 4-2-113, [5-amino-1-[4-(2,3-difluorophenoxy)-2-methylphenyl]pyrazol-4-yl]-[6-(1,1-dioxo-1,2-thiazolidin-2-yl)-5-methyl-1H-indol-2-yl]methanone] the same measures were 7.1 nM, 18 nM and 0.63 nM.
`Cc1cc(-n2ncc(C(=O)c3cc4cc(OC(F)F)c(N)cc4[nH]3)c2N)ccc1Oc1ccccc1F` [Example 5-1-161, [6-amino-5-(difluoromethoxy)-1H-indol-2-yl]-[5-amino-1-[4-(2-fluorophenoxy)-3-methylphenyl]pyrazol-4-yl]methanone]: the values for the IC50 in assay [1], in assay [2] and in assay [3] were 160 nM, 600 nM and 2.8 nM, respectively.
